PMC3787745, “Yeast Mnn9 is both a priming glycosyltransferase and an allosteric activator of mannan biosynthesis” (Open Biology, 2013)

Target: T1, ScVan1 with ScMnn9 (M-Pol I complex) (Saccharomyces cerevisiae, UniProt P23642)
T1 construct: gene VAN1; separately expressed glycosyltransferase domains (Van1 87-535, Mnn9 93-395) mixed; heterodimer; MBP-His6 tags cleaved by TEV; E. coli BL21(DE3) pLysS; with Mannan polymerase complexes subunit MNN9
Assay: FACE gel of ANTS-labelled products
Format: biochemical
Conditions: donor 1.2 mM; acceptor 10 mM α-1,6-mannobiose; 10 mM MnCl2; 20 mM HEPES pH 7.5; 30°C; both subunits wild-type

T1 sequence (P23642 87-535): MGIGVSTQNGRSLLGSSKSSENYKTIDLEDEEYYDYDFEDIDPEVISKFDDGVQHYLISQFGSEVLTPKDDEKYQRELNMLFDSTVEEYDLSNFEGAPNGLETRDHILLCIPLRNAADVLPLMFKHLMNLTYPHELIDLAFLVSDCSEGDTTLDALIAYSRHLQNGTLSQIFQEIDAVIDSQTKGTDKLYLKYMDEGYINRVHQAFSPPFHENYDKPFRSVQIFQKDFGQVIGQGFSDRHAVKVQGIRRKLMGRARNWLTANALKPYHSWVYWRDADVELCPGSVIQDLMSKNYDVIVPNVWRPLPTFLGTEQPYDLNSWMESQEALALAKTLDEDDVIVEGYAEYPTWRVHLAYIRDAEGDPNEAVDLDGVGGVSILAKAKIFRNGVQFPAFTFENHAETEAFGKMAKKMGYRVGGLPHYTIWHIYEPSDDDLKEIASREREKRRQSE
T1 sequence (P39107 93-395 partner): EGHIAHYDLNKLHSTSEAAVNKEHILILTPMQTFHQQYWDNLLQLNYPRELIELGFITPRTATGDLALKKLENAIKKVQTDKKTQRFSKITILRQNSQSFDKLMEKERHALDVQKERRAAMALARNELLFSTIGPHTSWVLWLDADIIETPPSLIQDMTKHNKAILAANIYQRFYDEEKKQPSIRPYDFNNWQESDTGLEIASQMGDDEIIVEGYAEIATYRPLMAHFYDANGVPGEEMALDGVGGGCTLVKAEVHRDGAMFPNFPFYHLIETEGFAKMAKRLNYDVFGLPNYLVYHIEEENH

Question: `Nc1nc2c(ncn2[C@@H]2O[C@H](COP(=O)(O)OP(=O)(O)O[C@H]3O[C@H](CO)[C@@H](O)[C@H](O)[C@@H]3O)[C@@H](O)[C@H]2O)c(=O)[nH]1` [GDP-Man] was tested. Which “FACE gel of ANTS-labelled products” value did it give?
Answer: ScMnn9, ScVan1, GDP-Man, α-1,6-mannobiose and MnCl2 were incubated
